Patent US7795261B2, “Substituted 1-piperidin-4-yl-4-pyrrolidin-3-yl-piperazine derivatives and their use as neurokinin antagonists” (Janssen Pharmaceutica NV, priority 2002, dated 2010)

Assays:
Type in all cases: cell-based
NK1 = NK1 (Homo sapiens, UniProt P25103); assay: Signal transduction (ST), intracellular Ca++ (FLIPR), NK1 antagonistic activity; details: read-out: pIC50 NK1 (converted)
Procedure, shortened: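 Antagonist IC50 was fitted by non-linear regression of peak intracellular Ca++ signals measured on FLIPR after agonist challenge. Beforehand, Fluo3-loaded confluent cells received antagonists over a concentration range for 20 min at room temperature in Ca++ Krebs buffer, pH 7.4.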

NK2 = target: T1, NK2 (Homo sapiens, UniProt P21452); assay: Signal transduction (ST), intracellular Ca++ (FLIPR), NK2; details: read-out: pIC50 NK2 (converted)
T1 sequence (P21452 1-398): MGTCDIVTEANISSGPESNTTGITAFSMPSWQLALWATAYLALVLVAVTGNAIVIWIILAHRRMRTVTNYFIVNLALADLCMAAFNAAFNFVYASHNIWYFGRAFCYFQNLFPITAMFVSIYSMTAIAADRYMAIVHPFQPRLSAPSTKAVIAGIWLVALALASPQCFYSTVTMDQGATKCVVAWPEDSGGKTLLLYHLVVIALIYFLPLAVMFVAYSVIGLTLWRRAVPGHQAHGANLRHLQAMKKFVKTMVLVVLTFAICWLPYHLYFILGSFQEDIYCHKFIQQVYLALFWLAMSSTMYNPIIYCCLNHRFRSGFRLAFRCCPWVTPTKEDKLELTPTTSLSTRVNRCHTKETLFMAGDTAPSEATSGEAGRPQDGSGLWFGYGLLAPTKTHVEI

NK3 = target: T2, NK3 (Homo sapiens, UniProt P29371); assay: Signal transduction (ST), intracellular Ca++ (FLIPR), NK3; details: read-out: pIC50 NK3 (converted)
T2 sequence (P29371 1-465): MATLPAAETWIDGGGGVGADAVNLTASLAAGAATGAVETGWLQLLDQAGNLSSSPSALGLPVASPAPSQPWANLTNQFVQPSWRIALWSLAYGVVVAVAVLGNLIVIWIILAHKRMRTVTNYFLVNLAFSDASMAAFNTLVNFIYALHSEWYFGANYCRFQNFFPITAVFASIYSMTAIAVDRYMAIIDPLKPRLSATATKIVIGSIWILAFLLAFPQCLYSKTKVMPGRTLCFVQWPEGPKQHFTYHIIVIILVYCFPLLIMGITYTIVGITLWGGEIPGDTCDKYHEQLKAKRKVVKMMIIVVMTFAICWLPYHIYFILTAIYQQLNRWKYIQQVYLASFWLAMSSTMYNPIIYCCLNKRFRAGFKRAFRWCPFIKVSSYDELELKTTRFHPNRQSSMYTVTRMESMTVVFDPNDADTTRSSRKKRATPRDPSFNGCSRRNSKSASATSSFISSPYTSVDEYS

NK1, sequence (P25103 whole entry): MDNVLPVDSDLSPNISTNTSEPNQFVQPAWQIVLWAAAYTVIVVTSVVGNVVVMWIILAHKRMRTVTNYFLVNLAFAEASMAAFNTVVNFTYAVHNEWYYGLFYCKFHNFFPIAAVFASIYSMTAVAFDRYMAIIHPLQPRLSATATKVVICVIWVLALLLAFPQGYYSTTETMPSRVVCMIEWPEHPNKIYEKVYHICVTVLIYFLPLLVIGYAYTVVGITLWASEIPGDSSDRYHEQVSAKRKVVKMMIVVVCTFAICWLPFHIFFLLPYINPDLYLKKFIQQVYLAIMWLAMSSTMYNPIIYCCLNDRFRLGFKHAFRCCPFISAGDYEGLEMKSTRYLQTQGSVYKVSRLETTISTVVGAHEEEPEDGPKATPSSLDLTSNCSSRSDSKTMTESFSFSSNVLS

| SMILES | IC50 (NK1) | IC50 (NK2) | IC50 (NK3) |
| --- | --- | --- | --- |
| O=C(C1CCOC1)N1CCC(N2CCN(C3CCN(C(=O)c4cc(C(F)(F)F)cc(C(F)(F)F)c4)C(Cc4ccc(F)c(F)c4)C3)CC2)C1 (single isomer, unassigned) [Compound 269] | 3.98 nM | 2510 nM | 6310 nM |
| O=C(c1ccccc1Cl)N1CC[C@@H](N2CCN([C@H]3CCN(C(=O)c4cc(C(F)(F)F)cc(C(F)(F)F)c4)[C@H](Cc4ccc(Cl)c(Cl)c4)C3)CC2)C1 [Compound 266] | 7.94 nM | 1000 nM | 316 nM |
| O=C(c1ccccc1Cl)N1CCC(N2CCN(C3CCN(C(=O)c4cc(C(F)(F)F)cc(C(F)(F)F)c4)C(Cc4ccc(F)cc4)C3)CC2)C1 (stereo not drawn) [Compound 279] | 15.8 nM | 3980 nM | 2000 nM |
| O=C(c1c(Cl)cccc1Cl)N1CCC(N2CCN([C@H]3CCN(C(=O)c4cc(C(F)(F)F)cc(C(F)(F)F)c4)[C@H](Cc4ccccc4)C3)CC2)C1 (stereo partly drawn) [Compound 169] | 12.6 nM | 2510 nM | 251 nM |
| Cc1cccc(C(=O)N2CCC(N3CCN([C@H]4CCN(C(=O)c5cc(C(F)(F)F)cc(C(F)(F)F)c5)[C@H](Cc5ccccc5)C4)CC3)C2)c1C (stereo partly drawn) [Compound 19] | 39.8 nM | 7940 nM | 398 nM |
| CC(C(=O)N1CCC(N2CCN(C3CCN(C(=O)c4cc(C(F)(F)F)cc(C(F)(F)F)c4)C(Cc4ccc(Cl)c(Cl)c4)C3)CC2)C1)c1ccccc1 (stereo not drawn) [Compound 176] | 20 nM | 2510 nM | 1000 nM |
| Cn1cccc(C(=O)N2CCC(N3CCN(C4CCN(C(=O)c5cc(C(F)(F)F)cc(C(F)(F)F)c5)C(Cc5ccc(F)c(F)c5)C4)CC3)C2)c1=O (single isomer, unassigned) [Compound 260] | 15.8 nM | 398 nM | 3980 nM |
| O=C(c1ccoc1)N1CCC(N2CCN([C@H]3CCN(C(=O)c4cc(C(F)(F)F)cc(C(F)(F)F)c4)[C@H](Cc4ccccc4)C3)CC2)C1 (stereo partly drawn) [Compound 34] | 20 nM | 3160 nM | 316 nM |
| Cc1noc(C)c1S(=O)(=O)N1CCC(N2CCN(C3CCN(C(=O)c4cc(C(F)(F)F)cc(C(F)(F)F)c4)C(Cc4ccccc4)C3)CC2)C1 (stereo not drawn) [Compound 79] | 15.8 nM | 1000 nM | 501 nM |
| O=C(Cc1ccco1)N1CCC(N2CCN([C@H]3CCN(C(=O)c4cc(C(F)(F)F)cc(C(F)(F)F)c4)[C@H](Cc4ccccc4)C3)CC2)C1 (stereo partly drawn) [Compound 66] | 25.1 nM | 5010 nM | 398 nM |
| Cn1cccc1C(=O)CN1CCC(N2CCN([C@H]3CCN(C(=O)c4cc(C(F)(F)F)cc(C(F)(F)F)c4)[C@H](Cc4ccccc4)C3)CC2)C1 (stereo partly drawn) [Compound 103] | 15.8 nM | 5010 nM | 398 nM |
| O=C(c1ccoc1)N1CCC(N2CCN(C3CCN(C(=O)c4cc(C(F)(F)F)cc(C(F)(F)F)c4)C(Cc4ccc(Cl)c(Cl)c4)C3)CC2)C1 (stereo not drawn) [Compound 173] | 20 nM | 794 nM | 251 nM |
| CC(C)(C)OC(=O)N1CC[C@@H](N2CCN([C@H]3CCN(C(=O)c4cc(C(F)(F)F)cc(C(F)(F)F)c4)[C@H](Cc4ccc(Cl)c(Cl)c4)C3)CC2)C1 [Compound 261] | 31.6 nM | 1260 nM | 501 nM |
| O=C(C1CCOC1)N1CCC(N2CCN(C3CCN(C(=O)c4cc(C(F)(F)F)cc(C(F)(F)F)c4)C(Cc4ccc(Cl)c(Cl)c4)C3)CC2)C1 (single isomer, unassigned) [Compound 249] | 50.1 nM | 5010 nM | 5010 nM |

Now from value to compound:

| IC50 (NK1) | IC50 (NK2) | IC50 (NK3) | SMILES |
| --- | --- | --- | --- |
| 12.6 nM | 2510 nM | 2000 nM | O=C(c1ccc(CCO)s1)N1CCC(N2CCN(C3CCN(C(=O)c4cc(C(F)(F)F)cc(C(F)(F)F)c4)C(Cc4ccccc4)C3)CC2)C1 (stereo not drawn) [Compound 359] |
| 6.31 nM | 3980 nM | 2000 nM | O=C(c1ccccc1O)N1CCC(N2CCN([C@H]3CCN(C(=O)c4cc(C(F)(F)F)cc(C(F)(F)F)c4)[C@H](Cc4ccccc4)C3)CC2)C1 (stereo partly drawn) [Compound 327] |
| 15.8 nM | 5010 nM | 6310 nM | COc1ccc(NC(=NC#N)N2CCC(N3CCN([C@H]4CCN(C(=O)c5cc(C(F)(F)F)cc(C(F)(F)F)c5)[C@H](Cc5ccccc5)C4)CC3)C2)cc1 (stereo partly drawn) [Compound 355] |
| 5.01 nM | 501 nM | 631 nM | O=C(c1ccccc1Cl)N1CC[C@H](N2CCN([C@H]3CCN(C(=O)c4cc(C(F)(F)F)cc(C(F)(F)F)c4)[C@H](Cc4ccc(Cl)c(Cl)c4)C3)CC2)C1 [Compound 315] |
| 15.8 nM | 1260 nM | 1260 nM | O=C(c1cc(C(F)(F)F)cc(C(F)(F)F)c1)N1CC[C@H](N2CCN(C3CCN(S(=O)(=O)c4ccccc4O)C3)CC2)C[C@H]1Cc1ccccc1 (stereo partly drawn) [Compound 307] |
| 10 nM | 3160 nM | 3160 nM | Cn1cccc(C(=O)N2CCC(N3CCN(C4CCN(C(=O)c5cc(C(F)(F)F)cc(C(F)(F)F)c5)C(Cc5ccc(F)c(F)c5)C4)CC3)C2)c1=O (single isomer, unassigned) [Compound 368] |
| 3.98 nM | 631 nM | 251 nM | CC(C)(C)C(=O)N1CC[C@H](N2CCN([C@H]3CCN(C(=O)c4cc(C(F)(F)F)cc(C(F)(F)F)c4)[C@H](Cc4ccc(Cl)c(Cl)c4)C3)CC2)C1 [Compound 313] |
| 10 nM | 1580 nM | 158 nM | CN(C(=O)OC(C)(C)C)C(C)(C)C(=O)N1CCC(N2CCN(C3CCN(C(=O)c4cc(C(F)(F)F)cc(C(F)(F)F)c4)C(Cc4ccccc4)C3)CC2)C1 (stereo not drawn) [Compound 304] |
| 12.6 nM | 3980 nM | 3980 nM | Cn1cnc(C(=O)N2CCC(N3CCN([C@H]4CCN(C(=O)c5cc(C(F)(F)F)cc(C(F)(F)F)c5)[C@H](Cc5ccccc5)C4)CC3)C2)c1 (stereo partly drawn) [Compound 282] |
| 15.8 nM | 6310 nM | 5010 nM | CC(C)NC(=O)N1CCC(N2CCN([C@H]3CCN(C(=O)c4cc(C(F)(F)F)cc(C(F)(F)F)c4)[C@H](Cc4ccccc4)C3)CC2)C1 (stereo partly drawn) [Compound 293] |
| 10 nM | 1260 nM | 1580 nM | Cn1cccc1C(=O)N1CCC(N2CCN(C3CCN(C(=O)c4cc(C(F)(F)F)cc(C(F)(F)F)c4)C(Cc4ccc(F)c(F)c4)C3)CC2)C1 (single isomer, unassigned) [Compound 367] |
| 15.8 nM | 398 nM | 631 nM | O=C(c1ccsc1)N1CC[C@H](N2CCN([C@H]3CCN(C(=O)c4cc(C(F)(F)F)cc(C(F)(F)F)c4)[C@H](Cc4ccc(Cl)c(Cl)c4)C3)CC2)C1 [Compound 325] |
| 15.8 nM | 316 nM | 398 nM | O=C(c1cccs1)N1CC[C@H](N2CCN([C@H]3CCN(C(=O)c4cc(C(F)(F)F)cc(C(F)(F)F)c4)[C@H](Cc4ccc(Cl)c(Cl)c4)C3)CC2)C1 [Compound 318] |
| 63.1 nM | 1580 nM | 1260 nM | O=C(OCc1ccccc1C(=O)N1CCC(N2CCN([C@H]3CCN(C(=O)c4cc(C(F)(F)F)cc(C(F)(F)F)c4)[C@H](Cc4ccccc4)C3)CC2)C1)c1ccccc1 (stereo partly drawn) [Compound 346] |
| 6.31 nM | 200 nM | 398 nM | O=C(c1cc(C(F)(F)F)cc(C(F)(F)F)c1)N1CC[C@H](N2CCN([C@H]3CCN(C(=O)n4ccnc4)C3)CC2)C[C@H]1Cc1ccc(Cl)c(Cl)c1 [Compound 324] |
| 12.6 nM | 3980 nM | 1580 nM | O=C(c1cc(CCO)cs1)N1CCC(N2CCN([C@H]3CCN(C(=O)c4cc(C(F)(F)F)cc(C(F)(F)F)c4)[C@H](Cc4ccccc4)C3)CC2)C1 (stereo partly drawn) [Compound 363] |
| 3.16 nM | 631 nM | 398 nM | O=C(C1CCOC1)N1CCC(N2CCN(C3CCN(C(=O)c4cc(C(F)(F)F)cc(C(F)(F)F)c4)C(Cc4ccc(Cl)c(Cl)c4)C3)CC2)C1 (single isomer, unassigned) [Compound 330] |
| 25.1 nM | 3980 nM | 2510 nM | N#Cc1ccc(NC(=O)N2CCC(N3CCN([C@H]4CCN(C(=O)c5cc(C(F)(F)F)cc(C(F)(F)F)c5)[C@H](Cc5ccccc5)C4)CC3)C2)cc1 (stereo partly drawn) [Compound 283] |
| 7.94 nM | 1580 nM | 794 nM | O=C(c1ccoc1)N1CC[C@@H](N2CCN([C@H]3CCN(C(=O)c4cc(C(F)(F)F)cc(C(F)(F)F)c4)[C@H](Cc4ccc(Cl)c(Cl)c4)C3)CC2)C1 [Compound 288] |
| 7.94 nM | 2510 nM | 2510 nM | O=C(C1CCCCC1)N1CCC(N2CCN(C3CCN(C(=O)c4cc(C(F)(F)F)cc(C(F)(F)F)c4)C(Cc4ccccc4)C3)CC2)C1 (single isomer, unassigned) [Compound 403] |
